For 14 compounds, inhibition and IC50 results are on record in patent publication US20230265104A1, “NOVEL HETEROCYCLIC COMPOUNDS” (PRISM BIOLAB CO., LTD., priority 2020, published 2023).

In the experiment the test system is PANC-1 (human pancreatic cancer-derived cell line). Description: MTS assay on Panc-1 (human pancreas carcinoma cell line). Format: cell-based. The note with it: 144 h; for inhibition at 0.3125 µM: read-out: Growth inhibition (%) 0.3125 μM; for IC50: PANC-1, MTS method, cell survival 6 days after exposure, 4-parameter logistic fit; for inhibition at 0.15625 µM: read-out: Growth inhibition (%) 0.15625 μM. A digest of the protocol:
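Viability measured by MTS 6 days after treating human pancreatic carcinoma PANC-1 cells with compound serially diluted 2-fold in DMSO; absorbance 492–630 nm normalized to solvent control. Triplicate measurements averaged and fitted to a 4-parameter logistic curve.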

In the case of `CC(C)C[C@H]1ON(C(=O)/C=C/c2ccc(-c3cccc(O)c3)cn2)[C@H]2CN(C3CCN(CCCCO)CC3)C(=O)[C@H](CC(C)(C)C)N2C1=O` [ID-80, (3R,6S,9aS)-8-(1-(4-hydroxybutyl)piperidin-4-yl)-1-((E)-3-(5-(3-hydroxyphenyl)pyridin-2-yl)acryloyl)-3-isobutyl-6-neopentyltetrahydropyrazino[2,1-c][1,2,4]oxadiazine-4,7(3H,6H)-dione], under “PANC-1, MTS, 6 days, 0.625 μM, read-out: Growth inhibition (%) 0.625 μM”, the inhibition at 0.625 µM stood at 63.2%. For `C#Cc1csc(/C=C/C(=O)N2O[C@H](CC(C)C)C(=O)N3[C@@H]2CN([C@H]2CCN(CCCCO)C2)C(=O)[C@@H]3CC(C)(C)C)n1` [ID-81, (3R,6S,9aS)-1-((E)-3-(4-ethynylthiazol-2-yl)acryloyl)-8-((S)-1-(4-hydroxybutyl)pyrrolidin-3-yl)-3-isobutyl-6-neopentyltetrahydropyrazino[2,1-c][1,2,4]oxadiazine-4,7(3H,6H)-dione], under “PANC-1, MTS, 6 days”, the inhibition at 0.3125 µM stood at 69.6%. On the same count and under the same terms, next, `CC(C)C[C@H]1ON(C(=O)/C=C/c2nc(-c3cccnc3)cs2)[C@H]2CN([C@H]3CCN(CCCCO)C3)C(=O)[C@H](CC(C)(C)C)N2C1=O` [ID-82, (3R,6S,9aS)-8-((S)-1-(4-hydroxybutyl)pyrrolidin-3-yl)-3-isobutyl-6-neopentyl-1-((E)-3-(4-(pyridin-3-yl)thiazol-2-yl)acryloyl)tetrahydropyrazino[2,1-c][1,2,4]oxadiazine-4,7 (3H, 6H)-dione]: 48.6%. For the compound `CC(C)C[C@H]1ON(C(=O)/C=C/c2nc3ccccc3s2)[C@H]2CN(C3CCN(CCC(CO)CO)CC3)C(=O)[C@H](CC(C)(C)C)N2C1=O` [ID-83, (3R,6S,9aS)-1-((E)-3-(benzo[d]thiazol-2-yl)acryloyl)-8-(1-(4-hydroxy-3-(hydroxymethyl)butyl)piperidin-4-yl)-3-isobutyl-6-neopentyltetrahydropyrazino[2,1-c][1,2,4]oxadiazine-4,7(3H,6H)-dione], the inhibition at 0.3125 µM (PANC-1, MTS, 6 days) amounted to 46.5%. `CC(C)C[C@H]1ON(C(=O)/C=C/c2nc3ccccc3s2)[C@H]2CN(C3CN(CCCCO)C3)C(=O)[C@H](CC(C)(C)C)N2C1=O` [ID-84, (3R,6S,9aS)-1-((E)-3-(benzo[d]thiazol-2-yl)acryloyl)-8-(1-(4-hydroxybutyl)azetidin-3-yl)-3-isobutyl-6-neopentyltetrahydropyrazino[2,1-c][1,2,4]oxadiazine-4,7(3H,6H)-dione] returned a 50% inhibitory concentration (IC50) of 110 nM. In addition, the inhibition at 0.3125 µM (PANC-1, MTS, 6 days) came to 88.9%. Compound `CC(C)C[C@H]1ON(C(=O)/C=C/c2nc3c(O)cccc3s2)[C@H]2CN([C@H]3CCN(CCCCO)C3)C(=O)[C@H](CC(C)(C)C)N2C1=O` [ID-85, (3R,6S,9aS)-1-((E)-3-(4-hydroxybenzo[d]thiazol-2-yl)acryloyl)-8-((S)-1-(4-hydroxybutyl)pyrrolidin-3-yl)-3-isobutyl-6-neopentyltetrahydropyrazino[2,1-c][1,2,4]oxadiazine-4,7(3H,6H)-dione] came in with an IC50 of 110 nM. Also, the inhibition at 0.15625 µM (PANC-1, MTS, 6 days) is 58.9%.

Consider `CC(C)C[C@@H]1C(=O)N2[C@H](CN(C3CCN(C)CC3)C(=O)[C@@H]2Cc2ccccc2)N1C(=O)/C=C/c1nc2ccccc2s1` [ID-86, (2R,5S,8aR)-1-((E)-3-(benzo[d]thiazol-2-yl)acryloyl)-5-benzyl-2-isobutyl-7-(1-methylpiperidin-4-yl)tetrahydroimidazo[1,2-a]pyrazine-3,6(2H,5H)-dione], for which the inhibition at 1.25 µM (PANC-1, MTS, 6 days, 1.25 μM, read-out: Growth inhibition (%) 1.25 μM) came to 50%. In the case of `CC(C)C[C@H]1ON(C(=O)/C=C/c2nc(C#CC3(N)CC3)cs2)[C@H]2CN([C@H]3CCN(CCCCO)C3)C(=O)[C@H](CC(C)(C)C)N2C1=O` [ID-87, (3R, 6S, 9aS)-1-((E)-3-(4-((1-aminocyclopropyl)ethynyl)thiazol-2-yl)acryloyl)-8-((S)-1-(4-hydroxybutyl)pyrrolidin-3-yl)-3-isobutyl-6-neopentyltetrahydropyrazino[2,1-c][1,2,4]oxadiazine-4,7(3H,6H)-dione], the inhibition at 0.3125 µM (PANC-1, MTS, 6 days) is 54.5%.

In the case of `CC(C)C[C@H]1ON(C(=O)/C=C/c2nc(C#CCN(C)C)cs2)[C@H]2CN([C@H]3CCN(CCCCO)C3)C(=O)[C@H](CC(C)(C)C)N2C1=O` [ID-88, (3R,6S,9aS)-1-((E)-3-(4-(3-(dimethylamino)prop-1-yn-1-yl)thiazol-2-yl)acryloyl)-8-((S)-1-(4-hydroxybutyl)pyrrolidin-3-yl)-3-isobutyl-6-neopentyltetrahydropyrazino[2,1-c][1,2,4]oxadiazine-4,7(3H,6H)-dione], the inhibition at 0.3125 µM (PANC-1, MTS, 6 days) was 38%. Take `C#Cc1cnc(/C=C/C(=O)N2O[C@H](CC(C)C)C(=O)N3[C@@H]2CN([C@H]2CCN(CCCCO)C2)C(=O)[C@@H]3CC(C)(C)C)s1` [ID-89, (3R,6S,9aS)-1-((E)-3-(5-ethynylthiazol-2-yl)acryloyl)-8-((S)-1-(4-hydroxybutyl)pyrrolidin-3-yl)-3-isobutyl-6-neopentyltetrahydropyrazino[2,1-c][1,2,4]oxadiazine-4,7(3H,6H)-dione]: inhibition was half-maximal at 180 nM (IC50). The inhibition at 0.3125 µM (PANC-1, MTS, 6 days) came to 100%.

The compound `CC(C)(C)C[C@H]1C(=O)N([C@@H]2CCN(CCCCO)C2)C[C@@H]2N(C(=O)/C=C/c3cnc4ccccc4n3)O[C@H](CC3CCCCC3)C(=O)N21` [ID-90, (3R, 6S, 9aS)-3-(cyclohexylmethyl)-8-((R)-1-(4-hydroxybutyl)pyrrolidin-3-yl)-6-neopentyl-1-((E)-3-(quinoxalin-2-yl)acryloyl)tetrahydropyrazino[2,1-c][1,2,4]oxadiazine-4,7(3H,6H)-dione] gave an IC50 of 210 nM. For the setting “PANC-1, MTS, 6 days”, the inhibition at 0.3125 µM amounted to 66%. Also, the inhibition at 1 µM (PANC-1, MTS, 6 days, 1 μM, read-out: Growth inhibition (%) 1 μM) amounted to 99%. In turn, `CC(C)C[C@H]1ON(C(=O)/C=C/c2nc(C#CCCCCCO)cs2)[C@H]2CN(C3CN(CCCCO)C3)C(=O)[C@H](CC(C)(C)C)N2C1=O` [ID-91, (3R,6S,9aS)-8-(1-(4-hydroxybutyl)azetidin-3-yl)-1-((E)-3-(4-(7-hydroxyhept-1-yn-1-yl)thiazol-2-yl)acryloyl)-3-isobutyl-6-neopentyltetrahydropyrazino[2,1-c][1,2,4]oxadiazine-4,7(3H,6H)-dione] registered an IC50 of 120 nM.

`CC(C)C[C@H]1ON(C(=O)/C=C/c2nc(C#CCCCCO)cs2)[C@H]2CN(C3CN(CCCCO)C3)C(=O)[C@H](CC(C)(C)C)N2C1=O` [ID-92, (3R,6S,9aS)-8-(1-(4-hydroxybutyl)azetidin-3-yl)-1-((E)-3-(4-(6-hydroxyhex-1-yn-1-yl)thiazol-2-yl)acryloyl)-3-isobutyl-6-neopentyltetrahydropyrazino[2,1-c][1,2,4]oxadiazine-4,7(3H,6H)-dione] yielded a half-inhibitory concentration (IC50) of 120 nM. With `CNC(=O)CCCC#Cc1csc(/C=C/C(=O)N2O[C@H](CC(C)C)C(=O)N3[C@@H]2CN([C@H]2CCN(CCCCO)C2)C(=O)[C@@H]3CC(C)(C)C)n1` [ID-93, 6-(2-((E)-3-((3R, 6S, 9aS)-8-((S)-1-(4-hydroxybutyl)pyrrolidin-3-yl)-3-isobutyl-6-neopentyl-4,7-dioxohexahydropyrazino[2,1-c][1,2,4]oxadiazin-1(6H)-yl)-3-oxoprop-1-en-1-yl)thiazol-4-yl)—N-methylhex-5-ynamide], where the note is “PANC-1, MTS, 6 days”, the inhibition at 0.15625 µM amounted to 37.4%.
